According to patent US20240277873A1, “ULTRABRIGHT […] PROBES FOR DETECTION AND IMAGING” (Nanyang Technological University, priority 2021, published 2024):
Values belong to the compound of their own block, whether it stands above or below them. Residues, ends and D or L forms follow the SMILES beside them. *: point of attachment. X1 = COC(=O)/C=C/c1ccc(C2(OC)OOC23C2CC4CC(C2)CC3C4)cc1OCc1ccc(N*)cc1

What was measured:
[1] = obtained from the literature (ACS Cent. Sci. 2017, 3, 349-358); cited from earlier work
[2] = Half-life and CL emission of uncaged BTPD in PBS; type: physicochemical; conditions: in PBS (10% DMSO) at 37° C.
Method: FIG. 13 depicts the half-lives of BTPDSu (20 μM) and BTPD (20 μM) in pure DMSO upon addition of excess O2^•- (100 μM) and in 10 mM PBS (10% DMSO, pH 7.4) at 37° C., respectively.

neutrophils = assay: In vitro cell chemiluminescent imaging; type: cell-based; conditions: probe 10 μM
Method: 3T3 cells and immune cells (neutrophils, DC cells, T-cells and macrophage) (10^4 cells) were seeded into confocal cell culture dishes (dia. 15 mm) and incubated for 24 h. […] After incubation, the medium was removed, and the cells were washed thrice. Chemiluminescence imaging of the cells were recorded on LX71 inverted microscope (Olympus), which was equipped with infinity 3-1 (Lumenera) CCD camera. During imaging, the excitation light was blocked and the images were recorded under an open filter, with an acquisition time of 60 s.

[3] = Blood test: chemiluminescence after incubation in healthy mouse blood; conditions: 20 μM, 30 min, 100 μL blood
Method: BTPDNe (20 μM) and MPDNe (20 μM) were incubated for 30 min in healthy mouse blood (100 μL), respectively. Chemiluminescence intensities were measured by IVIS system bioluminescence with an acquisition time of 60 s.

LPS-treated mice = assay: Real-time chemiluminescence imaging in LPS-induced peritonitis model; type: in vivo; conditions: LPS-treated mice
Method: The model was induced by intraperitoneal injection of LPS (15 ng) in 100 μL of PBS or PBS only as a control. Probe BTPDNe (40 μM·Kg^−1) or MPDNe (40 μM·Kg^−1) in PBS (10 mM, pH 7.4) containing 10% DMSO was intraperitoneally injected in mice. Then, chemiluminescent signals at different post-injection timepoints (0, 5, 10, 20, 45 and 60 min) were recorded using IVIS system bioluminescence with acquiring time of 120 s. After 3 h, the peritoneum was flushed with PBS (5 mL)+EDTA (5 mM). After erythrocyte lysis, neutrophils from C57Bl/6 mice were stained with a PE-labeled CD. After treatment with LPS for 3 h, CD11c antibody and an APC-labeled Ly6G antibody were added to the neutrophils, and the neutrophils were analyzed for double-positive events using flow cytometry (BD Biosciences). Data analysis was performed using Flowjo V10. Neutrophils were gated as CD45+CD11b+Ly6G+cells after the exclusion of doublets.
Fluorescence and chemiluminescence in vivo imaging of the probes were measured by an IVIS spectrum imaging system. Chemiluminescence imaging of the cells was recorded on LX71 inverted microscope. Tissue slices were cut by Leica, Germany slicer and imaged by a Nikon ECLIPSE 80i microscope. The images of tissue sections and cells were recorded with a LSM800 confocal laser scanning microscope. The white light was provided by 150 W LED High Bay Thermo Light.

NE = target: T1, NE (Homo sapiens, UniProt P08246); assay: Chemiluminescence and fluorescence changes of BTPDNe and MPDNe in the presence of NE (response, selectivity, LOD, half-life); type: biochemical
T1 sequence (P08246 30-267): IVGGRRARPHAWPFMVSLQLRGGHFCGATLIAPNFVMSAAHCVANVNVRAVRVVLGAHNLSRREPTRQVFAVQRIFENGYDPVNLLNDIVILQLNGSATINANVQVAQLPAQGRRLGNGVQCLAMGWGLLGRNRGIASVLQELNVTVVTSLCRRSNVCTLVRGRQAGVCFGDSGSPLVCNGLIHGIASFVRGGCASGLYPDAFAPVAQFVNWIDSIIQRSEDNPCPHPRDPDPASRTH
Method: Chemiluminescence and fluorescence changes of BTPDNe (20 μM) were determined in the presence of NE (0.1 U/ml), other different enzymes (˜0.1 U/mL, APN, ALP, Cas-3, cat B, GGT, β-gal and NTR) in 50 mM Tris, 1 M NaCl, 0.05% (w/v) Brij-35, pH 7.5 at 37° C. after 30 min incubation.
Chemiluminescence and fluorescence changes of BTPDNe and MPDNe (20 μM) in the presence of NE (0.1 U/mL), or other different enzymes (˜0.1 U/mL, APN, ALP, Cas-3, Cat B, GGT, β-gal, NTR, CatG and PR3) were tested after 30 min incubation in 50 mM Tris, 1 M NaCl, 0.05% (w/v) Brij-35, pH 7.5 at 37° C.
To determine the LOD for NE enzyme detection, the chemiluminescence of BTPDNe was recorded in 50 mM Tris, 1 M NaCl, 0.05% (w/v) Brij-35, pH 7.5 at 37° C. with different concentrations of NE (0, 0.05, 0.1, 0.5, 1, and 2 U/ml) for 30 min incubation. Then, initial reaction velocity was calculated.

[4] = Chemiluminescence and fluorescence changes of probes toward O2•- (KO2): response, selectivity, LOD
Method: The chemiluminescence and fluorescence changes of BOPDSu, BTPDSu, MBPDSu and MPDSu (20 μM) were recorded at different concentrations of RONS (40 μM) and other metal ions (100 μM). BOPDSu, BTPDSu, MBPDSu and MPDSu (20 μM) in phosphate buffered saline (PBS) buffer were treated in the presence of different RONS (40 μM), and metal ions (Mg^2+, Ca^2+ or Fe^2+, 100 μM) at 37° C.
The chemiluminescence signals were recorded at different concentrations of KO2 (0, 50, 100, 250, 500 and 1000 nM). Then, the limit of detection (LOD) of BOPDSu, BTPDSu, MBPDSu and MPDSu were calculated by chemiluminescence intensities based on the equation: LOD=3σ/k, where σ is the standard deviation of emission intensity of blank, and k is the slope of plot of emission intensities.

[5] = Chemiluminescence kinetic studies (half-lives, CL emission) of caged probes in the presence of O2•-; type: physicochemical; conditions: for CL Emission: caged probe after activation
Method: FIG. […]
[…] The chemiluminescent intensities were plotted as a function of time.
[…] The chemiluminescence signal was recorded by the microplate reader to calculate half-lives of BTPDSu at different pHs.

[6] = Stability of BTPDSu at different pHs (UV spectra); type: physicochemical; conditions: 20 μM, pH 5-9 buffers with 10% DMSO, 2 h, 37° C.
Method: BTPDSu and ABTPD (20 μM) were stored at different pHs (pH 5, 6, 7, 8 and 9) containing 10% DMSO for 2 h. Then, UV spectra of BTPDSu and fluorescence spectra of ABTPD were measured at different pHs.

[7] = Chemiluminescence quantum yield in the presence of O2•-; type: physicochemical; conditions: probe 20 μM, O2•- 100 μM, PBS (10 mM, pH 7.4, 10% DMSO), 37° C.
Method: The chemiluminescence QYs of BOPDSu, BTPDSu, MBPDSu, and MPDSu (20 μM) were measured in the presence of O2^•- (100 μM) in PBS (10 mM, pH 7.4, 10% DMSO) at 37° C. The fluorescence QYs were determined by using Rhodamine B as a standard dye (QY 36%) in PBS (10 mM, pH 7.4) (X. Zhen et al., ACS Nano 2016, 10, 6400-6409). The fluorescence QY of AMPD was obtained from the literature (O. Green et al., ACS Cent. Sci. 2017, 3, 349-358).

Compound: COC(=O)/C=C/c1ccc(C(=O)OC)cc1O [AMPD]
ΦFl, fluorescence QY of activated probe [1]: 3.1%

CL Emission [2]: ~515 nm
Compound: COC1(c2ccc(-c3nc4ccccc4s3)c(O)c2)OOC12C1CC3CC(C1)CC2C3 (centres unmarked) [BTPD]

Compound: COC(=O)/C=C/c1ccc(C2(OC)OOC23C2CC4CC(C2)CC3C4)cc1OCc1ccc(NC(=O)[C@@H](NC(=O)[C@@H]2CCCN2C(=O)[C@H](C)NC(=O)[C@H](C)NC(C)=O)C(C)C)cc1 (some centres unmarked) [MPDNe, reference compound] (Ac-AAPV-X1)
activated chemiluminescence signal in neutrophils, 30 min (neutrophils; incubation 30 min): 56.4 pixels
activated chemiluminescence signal in neutrophils, 1 h (neutrophils; incubation 1 h): 16.2 pixels
chemiluminescence intensities after incubation with healthy mouse blood [3]: Negligible
chemiluminescent signals after 60 min (LPS-treated mice; 60 min post injection): not
maximum chemiluminescent signal enhancement in peritoneum relative to negative control group (LPS-treated mice; 3 h post LPS, i.p. probe 40 μM·kg^−1): 8.5 fold
selectivity towards NE over other enzymes (NE; APN, ALP, Cas-3, cat B, GGT, furin, β-gal, NTR, PR3, CatG (~0.1 U/mL)): high selectivity
chemiluminescence enhancement after incubation with NE (NE; probe 20 μM, NE 0.1 U/mL, 50 mM Tris, 1 M NaCl, 0.05% Brij-35, pH 7.5, 37° C., 30 min, BTPDNe at 515 nm, MPDNe at 550 nm): 65.1 fold

Compound: benzothiazole-phenoxyl-dioxetane [BTPDSu]
LOD against O2•- ([4]; KO2 0-1000 nM, PBS (10 mM, pH 7.4, 10% DMSO), 37° C., LOD=3σ/k): 6.8 nM
chemiluminescence intensity increase after addition of O2•- ([4]; probe 20 μM, O2•- 40 μM for 10 s, PBS pH 7.4, 37° C., at 480 / 520 / 580 / 540 nm): 2960 times
fluorescent signal enhancement upon cleavage by O2•- ([4]; probe 20 μM, PBS (10 mM, pH 7.4, 10% DMSO), 37° C., at ~486 / 532 / 582 / 542 nm): 42.1 folds
chemiluminescence signal after 4 h incubation with O2•- ([5]; BTPDSu 100 μM, O2•- 4 eq., PBS (10 mM, pH 7.4, 10% DMSO), 37° C.): still observable by naked eye
CL Emission ([5]; in PBS (10% DMSO) at 37° C.): 520 nm
CL Emission ([5]; in pure DMSO): 485 nm
stability: UV spectra at different pHs [6]: no obvious changes
ΦCl, chemiluminescence QY [7]: 0.137 einsteins/mol
